How the values were obtained:
[1] = target: T1, CD20 on Raji cells (ATCC-No. CCL-86) (Homo sapiens, UniProt P11836); experiment: Ratio of the binding capacities to CD20 on Raji cells compared to rituximab (direct immunofluorescence, Cy5, FACSArray); settings: MFI at EC50 of Cy5-labeled antibodies, 30 min at 4° C.
T1 construct: generated by direct immunofluorescence using the Burkitt's lymphoma cell line Raji (ATCC-No. CCL-86); host or cells: Raji (Burkitt's lymphoma cell line)
T1 sequence (P11836 1-297): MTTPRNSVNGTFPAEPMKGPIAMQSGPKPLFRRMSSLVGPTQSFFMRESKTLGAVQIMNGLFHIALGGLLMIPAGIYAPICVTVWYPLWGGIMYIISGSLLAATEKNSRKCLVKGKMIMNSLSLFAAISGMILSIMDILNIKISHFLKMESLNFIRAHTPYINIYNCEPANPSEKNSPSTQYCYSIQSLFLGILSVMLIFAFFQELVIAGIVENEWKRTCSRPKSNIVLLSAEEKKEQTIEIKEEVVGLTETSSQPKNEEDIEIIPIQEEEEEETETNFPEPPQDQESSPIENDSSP
Description: MFI is the mean fluorescent intensity. The “Cy5-labeling ratio” as used herein means the number of Cy5-label molecules per molecule antibody.
Raji cells (ATCC-No. CCL-86) were maintained in culture in RPMI-1640 medium (PanBiotech GmbH, Cat.-No. PO4-18500) containing 10% FCS (Gibco, Cat.-No. 10500-064). […] 5*10^5 cells per sample were stained for 30 min at 4° C. Afterwards, cells were washed in culture medium. Propidium iodide (PI) staining was used to exclude dead cells.
Then the ratio of the binding capacities to CD20 on Raji cells (ATCC-No. CCL-86) is calculated according to the following formula: […]

[2] = system: WSU-DLCL2 human B-Cell Non-Hodgkin-Lymphoma (NHL); experiment: Tumor growth inhibition study in vivo, WSU-DLCL2 xenograft (Example 1); design: species or system SCID beige mice
Excerpt: Antibody buffer included histidine, trehalose and polysorbate 20.
Cyclophposphamide and vincristine were purchased as clinical formulation from Baxter Oncology GmbH, Halle, Germany or medac, Gesellschaft für klinische Spezialpräparate mbH, Hamburg, Germany, respectively. Dilution was adjusted from reconstituted stock solution.
WSU-DLCL2 human Non-Hodgkin-Lymphoma (NHL) cells were kindly provided from Hoffmann-La Roche, Inc., Nutley, N.J., USA. […] Passage 4 was used for transplantation. Cells were co-injected with Matrigel.
Continuous health monitoring was carried out on regular basis.
Animal treatment started at the day of randomisation 9 days after cell transplantation. […] The corresponding vehicle was administered on the same days. Cyclophosphamide and vincristine were given i.v. once weekly on day 9, 15, 23, 30, 37, 44, 51 and 58 at 25 mg/kg or 0.25 mg/kg, respectively. In the combination therapy groups, both antibodies were administered 24 hours after the chemotherapeutic agents on day 10, 16, 24, 31, 38, 45, 52 and 59.

anti-CD20 antibody B-HH6-B-KV1 GE: Type II anti-CD20 antibody; humanized B-Ly1, glycoengineered B-HH6-B-KV1 with increased ADCC (WO 2005/044859, WO 2007/031875)
binding capacity to CD20 on Raji cells compared to rituximab [1]: reduces binding capacity | tumor growth inhibition ([2]; day 35 after cell transplantation, compared to the control group, i.v. once weekly, antibodies 30 mg/kg, cyclophosphamide 25 mg/kg, vincristine 0.25 mg/kg): 85% | Tumor growth delay, T − C value ([2]; median time to reach 1500 mm^3, treatment minus control, until day 64 after cell transplantation): 19 days
